Where a SMILES comes first, the peptide text is derived from it. Bridges are numbered along the chain shown (N, C = ends).
Assays:
[1] = tested on: C57/ Bl/6 mice; conditions: literature value for comparison; cited from earlier work
Procedure: We injected increasing doses, from 0.8 to 25 ng, of Kbot21 to two sets of C57bL/6 mice containing each six individuals by i.c.v. The LD50 value corresponds to […] or 1μg/kg body weight which is 5 times to other LD50 values of some scorpion peptides, such as Maurotoxin, well characterized for their activity on potassium channels (LD50 = 100 ng).

[2] = tested on: rKV2.1; experiment: Two-electrode voltage-clamp, Xenopus oocytes expressing rKV2.1; format: cell-based, rat; conditions: 1 μM toxin, TEVC, n ≥ 3
Procedure: (§1) For the expression of the VGPCs (rKV1.1, rKV1.2, hKV1.3, rKV1.4, rKV1.6, Shaker IR, rKV2.1) in Xenopus oocytes, the linearized plasmids were transcribed using the T7 or SP6 mMESSAGE-mMACHINE transcription kit (Ambion, USA). The harvesting of stage V-VI oocytes from anaesthetized female Xenopus laevis frog was previously described. Oocytes were injected with 50 nl of cRNA at a concentration of 1 ng/nl using a micro-injector (Drummond Scientific, USA). The oocytes were incubated in ND96 solution containing (in mM): NaCl, 96; KCl, 2; CaCl2, 1.8; MgCl2, 2 and HEPES, 5 (pH 7.4), supplemented with 50 mg/l gentamycin sulfate. The use of the frogs was in accordance with the license number LA1210239.
(§2) Two-electrode voltage-clamp recordings were performed at room temperature (18–22°C) using a Geneclamp 500 amplifier (Molecular Devices, USA) controlled by a pClamp data acquisition system (Axon Instruments, USA). Whole cell currents from oocytes were recorded 1–4 days after injection. Bath solution composition was ND96 (in mM): NaCl, 96; KCl, 2; CaCl2, 1.8; MgCl2, 2 and HEPES, 5 (pH 7.4). Voltage and current electrodes were filled with 3 M KCl. Resistances of both electrodes were kept between 0.7–1.5 MΩ. The elicited currents were filtered at 1 kHz and sampled at 500 Hz using a four-pole low-pass Bessel filter. Leak subtraction was performed using a-P/4 protocol. […]

[3] = tested on: Shaker IR; experiment: Two-electrode voltage-clamp, Xenopus oocytes expressing Shaker IR; format: cell-based, insect; conditions: 1 μM toxin, TEVC, n ≥ 3
Procedure: as §1, §2

[4] = tested on: rKV1.4; experiment: Two-electrode voltage-clamp, Xenopus oocytes expressing rKV1.4; format: cell-based, rat; conditions: 1 μM toxin, TEVC, n ≥ 3
Procedure: as §1, §2

[5] = tested on: rKV1.1; experiment: Two-electrode voltage-clamp, Xenopus oocytes expressing rKV1.1; format: cell-based, rat; conditions: 1 μM toxin, TEVC, n ≥ 3
Procedure: as §1, §2

[6] = tested on: rKV1.2; experiment: Two-electrode voltage-clamp, Xenopus oocytes expressing rKV1.2; format: cell-based, rat; conditions: 1 μM toxin, TEVC, n ≥ 3
Procedure: as §1, §2

[7] = tested on: hKV1.3; experiment: Two-electrode voltage-clamp, Xenopus oocytes expressing hKV1.3; format: cell-based, human; conditions: 1 μM toxin, TEVC, n ≥ 3
Procedure: as §1, §2

[8] = biological target: T1, rKV1.6 (Rattus norvegicus, UniProt P17659); experiment: Two-electrode voltage-clamp, Xenopus oocytes expressing rKV1.6; format: cell-based
T1 construct: expressed in transfected cells; host or cells: Xenopus laevis oocytes injected with cRNA
Procedure: as §1
Two-electrode voltage-clamp recordings were performed at room temperature (18–22°C) using a Geneclamp 500 amplifier (Molecular Devices, USA) controlled by a pClamp data acquisition system (Axon Instruments, USA). Whole cell currents from oocytes were recorded 1–4 days after injection. Bath solution composition was ND96 (in mM): NaCl, 96; KCl, 2; CaCl2, 1.8; MgCl2, 2 and HEPES, 5 (pH 7.4). Voltage and current electrodes were filled with 3 M KCl. Resistances of both electrodes were kept between 0.7–1.5 MΩ. The elicited currents were filtered at 1 kHz and sampled at 500 Hz using a four-pole low-pass Bessel filter. Leak subtraction was performed using a-P/4 protocol. KV1.1-KV1.6 and Shaker IR currents were evoked by 500 ms depolarizations to 0 mV followed by a 500 ms pulse to -50 mV, from a holding potential of -90 mV. In order to investigate the current-voltage relationship, current traces were evoked by 10 mV depolarization steps from a holding potential of -90 mV. All data represent at least 3 independent experiments (n ≥ 3) and are presented as mean ± standard error.

T1 sequence (P17659 whole entry): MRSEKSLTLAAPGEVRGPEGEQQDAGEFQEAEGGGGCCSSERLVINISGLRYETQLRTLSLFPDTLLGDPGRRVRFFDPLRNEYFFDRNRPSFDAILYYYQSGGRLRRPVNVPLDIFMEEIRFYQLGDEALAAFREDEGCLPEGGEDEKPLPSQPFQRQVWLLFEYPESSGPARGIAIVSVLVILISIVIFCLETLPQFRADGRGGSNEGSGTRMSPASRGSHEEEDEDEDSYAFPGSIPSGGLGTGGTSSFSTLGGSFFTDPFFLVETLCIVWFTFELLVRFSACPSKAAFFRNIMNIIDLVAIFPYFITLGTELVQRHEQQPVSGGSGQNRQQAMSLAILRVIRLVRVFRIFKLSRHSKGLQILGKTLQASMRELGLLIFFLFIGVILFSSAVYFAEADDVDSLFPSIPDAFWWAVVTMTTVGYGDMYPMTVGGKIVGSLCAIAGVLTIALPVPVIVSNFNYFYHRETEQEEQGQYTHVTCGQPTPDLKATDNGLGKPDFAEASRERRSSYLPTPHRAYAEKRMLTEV

Row | Molecule | LD50 [1] [ng] | Inhibition of potassium current [2] | Inhibition of Shaker IR current [3] [%] | Inhibition of potassium current [4] | Inhibition of potassium current [5] | Inhibition of potassium current [6] | Inhibition of potassium current [7] | Reversibility of Kv1.6 block upon washout ([8]; 500 nM toxin, current recovered quickly and completely upon washout, n = 3) | Inhibition of potassium current ([8]; 1 μM toxin, Xenopus oocytes, TEVC, n ≥ 3) | V1/2 (midpoint of activation) ([8]; after application of 100 nM Kbot21, control 8.5 ± 0.9 mV, n ≥ 3, mean ± standard error, SEM) [mV] | Hill coefficient ([8]; concentration-response curve on Kv1.6, mean ± standard error, n ≥ 3, SEM)
1 | Maurotoxin: scorpion peptide well characterized for activity on potassium channels (VSCTGSKDCYAPCRKQTGCPNAKCINKSCKCYGC; UniProt P80719 1-34, looked up) | 100 | – | – | – | – | – | – | – | – | – | –
2 | CC[C@H](C)[C@@H]1NC(=O)[C@@H]2CSSC[C@H](NC(=O)[C@H](C)NC(=O)[C@H](C)N)C(=O)N[C@@H](Cc3ccc(O)cc3)C(=O)N[C@@H](CO)C(=O)N[C@@H](CO)C(=O)N[C@@H](CC(=O)O)C(=O)N[C@H]3CSSC[C@H](NC(=O)[C@H](CCCCN)NC(=O)[C@H](CO)NC(=O)[C@H](CC(=O)O)NC1=O)C(=O)N[C@@H](CCCCN)C(=O)N[C@H](C(=O)N[C@@H](Cc1ccc(O)cc1)C(=O)N[C@@H](CCCCN)C(=O)O)CSSC[C@H](NC(=O)[C@H](CCCCN)NC(=O)[C@H](C(C)C)NC(=O)[C@H](CCCNC(=N)N)NC3=O)C(=O)N[C@@H](CCCNC(=N)N)C(=O)N[C@@H](C)C(=O)N[C@@H](CCSC)C(=O)NCC(=O)N[C@@H](Cc1ccccc1)C(=O)N[C@@H](CO)C(=O)N[C@@H](CO)C(=O)NCC(=O)N[C@@H](CCCCN)C(=O)N2 [Kbot21] (H-AACYSSDCRVKCRAMGFSSGKCIDSKCKCYK-OH; disulfide 3-22, 8-27, 12-29 (inferred); N-terminus and C-terminus assumed) | – | failed to exert any activity | 65 | failed to exert any activity | completely inhibited | completely inhibited | completely inhibited | reversible | completely inhibited | 6.9 ± 2.9 | 1.1 ± 0.1

Source: PMC4580410, “Characterization of Kbot21 Reveals Novel Side Chain Interactions of Scorpion Toxins Inhibiting Voltage-Gated Potassium Channels” (PLoS ONE, 2015)
